# Experimental data from PMC5597593, “Polyphenols journey through blood-brain barrier towards neuronal protection” (Scientific Reports, 2017).
# Entries after “also recorded” stand apart in the source; their conditions may differ.
# Assays:
# [1] = test system: HBMEC line; experiment: Endothelial transport across confluent HBMEC two chamber BBB model, LC-Orbitrap MS; format: in vitro ADME, human; conditions: for Endothelial transport (lower/(upper+lower) compartment): 5 μM in upper chamber, 2 h of incubation
# Protocol: We used the well-validated confluent HBMEC two chamber BBB model[32] to investigate endothelium transport with metabolite quantification by Orbitrap LC-MS techniques. (Poly)phenol metabolites were added in the upper chamber and their putative transport through the BBB endothelium assessed after 2 h of incubation (Fig. 1a).
# Human brain microvascular endothelial cell (HBMEC) line was used as a simplified and validated in vitro model of the BBB[32], [44], [45], [62]. This cell line was derived from primary cultures of HBMEC transfected with SV40 large T antigen. HBMEC line was cultured in RPMI 1640 medium (Sigma-Aldrich) supplemented with 10% fetal bovine serum (FBS - Biochrom AG), 10% NuSerum IV (BD Biosciences), 1% non-essential amino acids (NEAA - Biochrom AG), 1% minimal essential medium (MEM) vitamins (Biochrom AG), 1 mM sodium pyruvate (Biochrom AG), 2mM L-glutamine (Biochrom AG), and 1% antibiotic-antimycotic solution (Sigma-Aldrich). For immunostaining and cytoprotection studies, cells were seeded at a density of 8 × 10^4 cell/mL in 24-well and 96-well plates, respectively, and treated after 48 h in culture. For integrity and transport studies, cells were seeded on polyester transwell inserts (0.4 μm, Corning Costar Corp., USA) at a density of 8 × 10^4 cell/insert and treated after 8 days in culture. Inserts and plates were coated with rat-tail collagen-I (BD Biosciences, Erembodegem, Belgium) before seeding. All experiments were performed after monolayer formation.
# HBMEC were plated in semi-permeable membranes (inserts) placed in cell culture wells. This two-chamber system, where the upper and lower chambers mimic the blood and brain compartments, respectively, and the confluent HBMEC monolayer represents the BBB. Transport assays were conducted in HBSS (Hank’s Balanced Salt Solution) with calcium and magnesium (Gibco), supplemented with 0.1% FBS. Confluent monolayers of HBMEC were incubated with 5 μM of each compound for 2 h, time described for compounds to interact and/or being transported across cells, [69]. […]. Monolayer integrity was ensured in all experiments as described. In the end, cell medium from upper and lower compartments were collected and frozen at −80 °C until analysis. Transport analysis were performed after sample deproteinization by LC-Orbitrap MS as described below.
# To 1 mL of upper or lower compartment cell medium it was added: 139 µL of 50% formic acid, ascorbic acid (final concentration of 1 mM) and taxifolin as internal standard (final concentration of 9 µM). To precipitate proteins, 2.5 mL of ACN was added dropwise and samples were vortexed before centrifugation at 3200 g for 15 min. The supernatant was removed and dried under centrifugal evaporation (CentriVap Vaccum Concentrator, Labconco). Samples were dissolved in 5% ACN in 0.1% formic acid and immediately analyzed by LC-Orbitrap MS.
# Samples were separated on an HPLC Accela 600 HPLC system (Thermo Scientific, Bremen, Germany) using a C18 Synergi Hydro RP18 column (Phenomenex, Macclesfield, UK) 4 μm particle size and dimensions 2 mm ID × 150 mm. […] Analysis was done on an LTQ OrbitrapTM XL hybrid mass spectrometer (Thermo Scientific, Bremen, Germany).
# MS analysis was performed using data-dependent Nth order double play analysis comprising full scan mass range 80–2000 amu, 30 000 resolution, data-type centroid and data dependent MS/MS (60 s of exclusion duration) on the top three most intense ions detected above threshold automatically in the independent scan event. ESI settings were as follows: source voltage, 3.4 kV; capillary temperature was 275 °C with a sheath gas at 40 psi and auxiliary gas at 5 psi. MS data handling software (Xcalibur QualBrowser software, Thermo Electron Corp.) was used to search for predicted metabolites by their appropriate m/z value. All peaks were checked for m/z value and fragmentation products. […]
# [2] = parameters: method as in PMID 25571923; conditions: human plasma samples; cited from earlier work
# [3] = test system: 3D aggregates containing neurons and astrocytes (NT2); experiment: Neuroprotection in 3D co-cultures of neurons and astrocytes (t-BHP injury); format: cell-based, human; conditions: pre-incubation 5 µM 24 h, then 300 µM t-BHP, 48 h
# Protocol: NTera-2/cl.D1 (NT2) cells, obtained from American Type Cell Culture Collection (ATCC), were differentiated in stirred suspension culture systems, as 3D aggregates, as previously described. A single cell suspension of undifferentiated NT2 cells was seeded in DMEM (Dulbeco Minimum Essential Media), 10% FBS, 1% P/S (all from Invitrogen), in a 125 mL spinner vessel equipped with ball impeller (Wheaton). After three days of aggregation, differentiation was induced by addition of 10 µM retinoic acid (Sigma-Aldrich), for three weeks, with a 50% medium exchange performed every 2–3 days. Following this period (from day 24 onwards), the medium was composed by DMEM, 5% FBS, 1% P/S. Stable 3D co-cultures of neurons and astrocytes were maintained up to day 50 of culture and applied in neuroprotection assays (from day 38 to day 50).
# Cell viability was accessed before exposure to test compounds, before t-BHP lesion induction and 48 h after lesion induction by PrestoBlue® Cell Viability Reagent (Thermo Fisher Scientific), accordingly to manufacturer’s instructions. Idebenone (provided by Grupo Tecnimede) was used as positive control. Final cell viability was calculated as a percentage of cell viability before lesion induction.
# [4] = test system: primary mouse cerebellar granule cells; experiment: Neuroprotection in cerebellar granule cells exposed to glutamate excitotoxicity; format: cell-based; conditions: pre-incubation 5 µM 24 h, then 100 µM glutamate 24 h
# Protocol: Primary cultures of cerebellar granule cells were prepared according to the already described method. Cells were isolated from cerebella of 7d-old BALB-C mice and 0.5 × 10^6 cell/mL were cultured in Neurobasal Medium (Gibco) supplemented with 2% B-27 without antioxidants (Gibco) and 2% KCl (20 mM, Sigma-Aldrich), containing 0.25% L-glutamine (200 mM, Sigma-Aldrich) and 0.48% penicillin-streptomycin (P/S, 5000 U mL^−1, Gibco). Experiments were performed on 24-well plates with coverslips coated with 50 µg/mL poly-D-lysine (Sigma-Aldrich). 20 µM of cytosine arabinoside (Sigma-Aldrich) was added 48 h after inoculation to prevent glia cell proliferation. All the experiments were performed between days 7–11 in culture.
# Physiological concentrations (5 µM) of the two most abundant metabolites were added to the cells at 7 d in culture. Cells were then incubated for 24 h and morphology was evaluated. At day 8 in culture, 100 µM of glutamate (Sigma-Aldrich) was added to the respective wells. Cells were incubated for another 24 h, morphology was evaluated and viability determined by fluorescence microscopy through Propidium Iodide (PI) and Hoechst 33342 staining, as previously described.
# [5] = test system: HBMEC line; experiment: Cytoprotection in HBMEC submitted to oxidative stress (H2O2); format: cell-based, human; conditions: pre-incubation 5 µM 24 h, then 300 µM H2O2 24 h
# Protocol: HBMEC were incubated in the presence of H2O2 (Sigma-Aldrich). Briefly, 24 h after seeding, cells growth medium was removed and cells were pre-incubated for 24 h with 5 µM of each compound. After pre-incubation, media was replaced by new media containing 300 µM H2O2, for 24 h[71], [72]. In the end, medium was removed and cell viability was assessed using the CellTiter-Blue® Cell Viability Assay (Promega), according to the manufacturer’s instructions.
# [6] = test system: NF-κB p65; experiment: NF-κB p65 phosphorylation (ser536) ratio in N9 microglia (western blot); format: cell-based, murine; conditions: N9 cells; pre-treatment before LPS; 15 to 60 min
# Protocol: N9 microglial cells were plated into 6-well plates (5 × 10^5 cells mL^−1) and then pre-incubated with 5 µM of each (poly)phenol metabolite. After 6 h, medium was discarded and cells were washed once with phosphate buffer saline (PBS) prior to addition of fresh medium with 300 ng/mL lipopolysaccharide from Escherichia coli 055:B5 (LPS, Sigma–Aldrich). Pro-inflammatory mediators release to medium were quantified as described below.
# NT2 aggregates and N9 protein samples western blot analysis was performed accordingly to[41]. Aggregates were lysed with TX-100 lysis buffer (50 mM Tris, 5 mM EDTA, 150 mM NaCl, 1% Triton X-100, pH 7.4) and N9 protein extraction was performed with RIPA buffer. Primary antibodies were incubated overnight at RT, followed by secondary antibodies (horseradish peroxidase-conjugated, ECL anti-mouse IgG, anti-rat IgG or anti-rabbit IgG; Pierce, Millipore and GE Healthcare), incubated for 2 h at room temperature. Anti-GAPDH antibody (Thermo Scientific) was used as loading control. Primary antibodies used for protein detection were: anti-βIII-Tubulin (Millipore), anti-GFAP (DAKO), and MitoProfile Total OXPHOS WB primary antibody cocktail (Abcam), anti-phospho-NF-κB p65 (ser536) antibody (Cell Signalling), anti-NF-κB p65 (C-20) (Santa Cruz Biotechnology), and anti-IκB-α (C-21) antibody (Santa Cruz Biotechnology). […]
# [7] = biological target: T1, P-gp (Homo sapiens, UniProt P08183); experiment: P-gp functional assay, Rhodamine 123 accumulation in HBMEC; format: cell-based; conditions: 5 μM
# T1 construct: endogenous in cells; host or cells: HBMEC line (human brain microvascular endothelial cells immortalised with SV40 large T antigen)
# Protocol: Activity of each efflux transporter was determined by measuring cellular accumulation of respective substrate[65], [66], and results were expressed as fold-change compared to the respective control. […] The solution was quickly removed, HBMEC were washed three times with PBS and solubilized in 0.1 M NaOH. Substrate content was determined using a FLUOstar Omega fluorescent plate reader (BMG Labtechnologies, Ortenberg, Germany; for P-gp, excitation at 505 nm, emission at 534 nm; for MRP1, excitation at 495 nm, emission at 516 nm; for BCRP excitation at 503 nm, emission at 512 nm). […] Protein content was evaluated by the Bradford method[67] using Bio-Rad’s Protein Assay reagent (Bio-Rad).
# [8] = test system: HBMEC; experiment: HBMEC metabolization: search for novel cellular metabolites by LC-Orbitrap MS; format: in vitro ADME, human; conditions: after addition of Pyr-sulf in upper compartment; compared with acetylcysteine-pyrogallol
# Protocol: Search for novel compounds resulting from HBMEC metabolization was performed in the same samples using Xcalibur QualBrowser software using an in-house database of putative bioavailable (poly)phenol metabolites[30]. Putative ID of predicted metabolites was determined by exact mass, according to their appropriate m/z value.
# [9] = test system: β-III tubulin; experiment: Western blot of neuronal marker in 3D aggregates; format: cell-based, human; conditions: pre-incubation with 5µM Pyr-sulf or 200nM Idebenone, normalized to GAPDH
# Protocol: NT2 aggregates and N9 protein samples western blot analysis was performed accordingly to[41]. Aggregates were lysed with TX-100 lysis buffer (50 mM Tris, 5 mM EDTA, 150 mM NaCl, 1% Triton X-100, pH 7.4) and N9 protein extraction was performed with RIPA buffer. Primary antibodies were incubated overnight at RT, followed by secondary antibodies (horseradish peroxidase-conjugated, ECL anti-mouse IgG, anti-rat IgG or anti-rabbit IgG; Pierce, Millipore and GE Healthcare), incubated for 2 h at room temperature. Anti-GAPDH antibody (Thermo Scientific) was used as loading control. Primary antibodies used for protein detection were: anti-βIII-Tubulin (Millipore), anti-GFAP (DAKO), and MitoProfile Total OXPHOS WB primary antibody cocktail (Abcam), anti-phospho-NF-κB p65 (ser536) antibody (Cell Signalling), anti-NF-κB p65 (C-20) (Santa Cruz Biotechnology), and anti-IκB-α (C-21) antibody (Santa Cruz Biotechnology). Membranes were developed using Amersham ECL Prime Western Blotting Detection Reagent (GE Healthcare) and visualized using a ChemiDocTM XRS + System (BioRad).
# T1 sequence (P08183 whole entry): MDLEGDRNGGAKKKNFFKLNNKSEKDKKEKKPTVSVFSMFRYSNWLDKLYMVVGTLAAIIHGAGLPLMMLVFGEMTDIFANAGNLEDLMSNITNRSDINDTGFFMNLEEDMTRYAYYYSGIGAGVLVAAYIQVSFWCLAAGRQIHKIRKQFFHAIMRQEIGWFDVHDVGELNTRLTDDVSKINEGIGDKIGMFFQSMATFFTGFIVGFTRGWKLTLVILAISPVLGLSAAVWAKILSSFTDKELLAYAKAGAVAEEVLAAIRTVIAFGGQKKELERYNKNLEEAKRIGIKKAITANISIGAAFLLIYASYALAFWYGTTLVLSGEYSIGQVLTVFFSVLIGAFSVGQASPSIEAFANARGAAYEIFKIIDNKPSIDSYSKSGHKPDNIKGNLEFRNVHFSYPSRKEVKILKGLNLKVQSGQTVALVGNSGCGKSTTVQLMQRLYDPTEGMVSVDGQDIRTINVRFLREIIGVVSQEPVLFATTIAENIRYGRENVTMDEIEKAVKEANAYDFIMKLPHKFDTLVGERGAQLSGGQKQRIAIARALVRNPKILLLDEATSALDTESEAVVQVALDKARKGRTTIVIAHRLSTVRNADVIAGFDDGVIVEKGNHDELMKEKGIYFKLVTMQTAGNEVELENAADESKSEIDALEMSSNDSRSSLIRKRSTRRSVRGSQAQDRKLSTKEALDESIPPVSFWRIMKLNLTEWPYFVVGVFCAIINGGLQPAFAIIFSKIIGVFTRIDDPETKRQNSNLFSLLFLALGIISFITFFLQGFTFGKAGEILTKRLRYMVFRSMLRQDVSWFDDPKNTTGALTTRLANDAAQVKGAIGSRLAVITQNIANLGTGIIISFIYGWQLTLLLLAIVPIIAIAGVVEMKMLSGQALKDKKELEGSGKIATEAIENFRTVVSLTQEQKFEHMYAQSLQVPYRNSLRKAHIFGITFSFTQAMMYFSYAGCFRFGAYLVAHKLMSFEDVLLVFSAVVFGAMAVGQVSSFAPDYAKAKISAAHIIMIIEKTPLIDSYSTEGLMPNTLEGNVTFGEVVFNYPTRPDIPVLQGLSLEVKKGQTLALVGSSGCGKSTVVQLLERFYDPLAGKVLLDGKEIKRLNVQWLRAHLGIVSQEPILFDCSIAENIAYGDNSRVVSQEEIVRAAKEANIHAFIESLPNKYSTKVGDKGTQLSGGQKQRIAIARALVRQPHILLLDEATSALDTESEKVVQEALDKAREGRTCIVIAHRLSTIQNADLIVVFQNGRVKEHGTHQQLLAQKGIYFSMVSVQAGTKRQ
Compound,Endothelial transport (lower/(upper+lower) compartment) [1],Cmax [2],also measured
"COc1c(O)cc(C(=O)O)cc1OS(=O)(=O)O [4-MeGA-sulf, 4-O-methylgallic acid-3-O-sulfate]",increased BBB permeation compared with 4-methylgallic acid (4-MeGA),2030 ± 1100 nM,
"COc1c(O)cccc1OS(=O)(=O)O [2-MePyr-sulf, 2-O-methylpyrogallol-1-O-sulfate]",transported as effectively as Pyr-sulf,1970 ± 1000 nM,
"O=S(=O)(O)Oc1ccccc1O [Cat-sulf, Catechol-O-sulfate]",,12200 ± 5900 nM,"Cell viability of 3D aggregates after t-BHP-induced injury [3]: significant neuroprotection; Cell viability of cerebellar granule cells under glutamate-induced excitotoxicity [4]: improved cell viability; Cell viability of HBMEC after H2O2 injury [5]: improved cell viability; Endothelial transport after treatment with BCRP specific inhibitor Ko 143 ([1]; 5 μM, 1 μM Ko 143, p < 0.05 relatively to No inhibitor): significant increase; Endothelial transport along time ([1]; 5 μM, 2, 6 and 24 h): significant increase in transport percentage; Kinetics of NF-κB phosphorylated-p65/total p65 ratio [6]: unchanged; P-gp activity (Rhodamine 123 accumulation) in the presence of metabolite [7]: no statistically- significant alterations"
1-O-methylpyrogallol-O-sulfate [1-MePyr-sulf],less effectively transported,2880 ± 1800 nM,
"COc1cc(C(=O)O)ccc1OS(=O)(=O)O [VA-sulf, Vanillic acid 4-O-sulfate]",,1340 ± 1300 nM,
"COc1c(O)cc(C(=O)O)cc1O [4-MeGA, 4-O-methylgallic acid]",,300 ± 100 nM,
"O=S(=O)(O)Oc1c(O)cccc1O [Pyr-2-sulf, Pyrogallol-2-O-sulfate]",detected only Pyr-2-sulf in the basolateral compartment,,
N[C@@H](CCC(=O)N[C@@H](CSc1ccc(O)c(O)c1O)C(=O)NCC(=O)O)C(=O)O [Glutathionyl-pyrogallol],,,Relative abundance (peak areas) of novel metabolite [8]: detected in higher amounts
"Cc1ccc(OS(=O)(=O)O)c(O)c1 [4-MeCat-sulf, 4-Methylcatechol O-sulfate]",more effectively transported than catechol-O-sulfate (Cat-sulf); also recorded: higher endothelial transport percentage,640 ± 500 nM,
COC1=C(OC)C(=O)C(CCCCCCCCCCO)=C(C)C1=O [idebenone],,,β-III tubulin protein levels after t-BHP lesion [9]: increased β-III tubulin protein levels
"O=S(=O)(O)Oc1cccc(O)c1O [Pyr-1-sulf, Pyrogallol-1-O-sulfate]",,,"Endothelial transport after 24 h ([1]; Pyr-sulf mixture 5 μM, 24 h incubation): no transport"
